Source: patent US20220387403A1, “COMPOUNDS, COMPOSITIONS AND METHODS FOR TREATING NASH, NAFLD, AND OBESITY” (CVI Pharmaceuticals Limited, priority 2019, published 2022)
Read-outs that look alike come from different tables or passages of the source.

What was measured:
hyperlipidemic rabbits [1] = assay: Lipid lowering effects and blood chemistry in hyperlipidemic rabbits; conditions: for serum total cholesterol level: in mM
Method: (§4) Forty-two male Japanese rabbits were fed the cholesterol enriched rabbit diet for two weeks to induce hypercholesterolemia. […] Serum samples were collected at day 0 (before the drug treatment) and day 7. […] All tested animals were sacrificed at the end of a total of 14 days treatment and serum samples were analyzed for TC, LDL-C, TG, and HDL-C. In addition to lipid profiles, a number of biochemical parameters were also analyzed to aseesee the effects of drug treatments on liver function, muscle function, kidney function, and heart function.

PCSK9 = assay: Western blot of PCSK9 protein in HepG2 cells; assay type: cell-based, human; conditions: 20 μM, 1, 2 and 3 days
Method: (§1) Cells were harvested after 1, 2, and 3 days treatment and western blot analysis was conducted using antibodies directed to LDLR and PCSK9. Chicken anti-LDLR was purchased from Abcam, the mouse anti-PCSK9 was purchased from Cayman Chemicals, and anti-pACC was purchased from Cell Signaling.
(§2) To determine whether the stimulatory effects of statins on LDLR protein expression could be enhanced by some new compounds invented herein, HepG2 cells were untreated or treated with a low dose of rosuvastatin (RSV) at 0.3 and 1 uM concentration in the absence or the presence of Compound 127(+), or treated with low concentrations of Compound 127(+) alone for 2 days. Western blot analysis was conducted to examine LDLR and PCSK9 protein levels. Compound 127(+) is the single enantiomer of compound 127 with a positive optical rotation. […] Furthermore, the inducing effects of RSV on PCSK9 protein levels were antagonized by compound 127(+).
(§3) Chicken anti-LDLR was purchased from Abcam and the mouse anti-PCSK9 was purchased from Cayman Chemicals. HepG2 cells cultured in 60-mm dishes were incubated overnight in medium containing 0.5% fetal bovine serum prior to the addition of compounds at 20 uM concentration for 1-3 days. Total cell lysate was isolated and 50 μg of protein was separated on SDS-PAGE and transferred to nitrocellulose membrane for immunoblotting with anti-LDLR, anti-PCSK9, and anti-p-ACC.

ACC = assay: Western blot of phosphorylated ACC in HepG2 cells; assay type: cell-based, human; conditions: 20 μM, 1, 2 and 3 days
Method: as §1, §3

LDLR = assay: Western blot of LDLR protein in HepG2 cells; assay type: cell-based, human; conditions: 20 μM, 1, 2 and 3 days
Method: as §1, §2, §3

hyperlipidemic rabbits [2] = conditions: rabbit, in vivo
Method: as §4

Male Wister rats [3] = assay: Food intake and body weight in Wister rats under a high fat and high cholesterol diet; assay type: in vivo, rat; conditions: 4-week treatment
Method: The food intake and body weight gains were measured every week during the 4-week treatment period. […] In the first week, the amount of food consumed was decreased in CRDL-treated group. […] The ability of CRDL to activate AMPK signaling pathway to increase energy expenditure and to reduce fat accumulation likely contributes to this weight reducing effect.

Male Wister rats [4] = assay: Lipid lowering effects in Wister rats under a high fat and high cholesterol diet; assay type: in vivo, rat; conditions: 75 mg/kg daily oral
Method: Male Wister rats were used as an animal model to examine the in vivo effects of (14R, 13S)-CRDL in plasma lipid levels.
In one experiment, 18 Wister male rats under a high fat and high cholesterol diet were divided into 2 groups. One group was given (14R, 13S)-CRDL hydrochloride salt orally at a daily dose of 75 mg/kg by an orogastric tube for 4 weeks, and the control group received daily treatment of equal amount of vehicle (0.1 M sodium phosphate, pH 3.5). Serum lipid levels were measured weekly.
At the end of treatment, Rats were sacrificed and blood and sera were collected to measure several critical parameters for liver function and kidney function. […] Kidney function and blood glucose level were not changed by the treatment.

[5] = after 14 days of drug treatment, mean, n = 6
[6] = treatment day 0 (before the drug treatment), mean ± SD, n = 6
[7] = treatment day 4, 128(+)/128(−) 30 mg/kg, SMV/ATV 3 mg/kg once a day oral gavage
[8] = treatment day 7, 128(+)/128(−) 30 mg/kg, SMV/ATV 3 mg/kg once a day oral gavage
[9] = treatment day 10, from day 7 128(+)/128(−) 60 mg/kg, SMV/ATV 10 mg/kg
[10] = treatment day 14, from day 7 128(+)/128(−) 60 mg/kg, SMV/ATV 10 mg/kg

## COc1ccc2c(c1)CCN1Cc3c(ccc(OC)c3OS(=O)(=O)c3cccc(F)c3)CC21 (stereo not drawn) [128(+), 3,10-Dimethxoy-5,6,7,8,13,13a-hexahydroisoquinolino[2,1-b]isoquinolin-9-yl 3-fluorobenzenesulfonate]
Hyperlipidemic rabbits [1]; [5]
  ALP: 165.2 IU/L
  ALT: 68.7 IU/L
  AST: 20.8 IU/L
  CK: 1172.3 U/L
  CREA: 97.2 µmol/L
  GLU: 7.9 mmol/L
  HDL-C: 3.6 mmol/L
  LDH: 47.7 IU/L
  LDL-C: 29.7 mmol/L
  TC: 34.2 mmol/L
  TG: 1.0 mmol/L
  body weight: 2.6 kg
Hyperlipidemic rabbits [1]; [6]
  serum total cholesterol level: 28.6 ± 6.7
Hyperlipidemic rabbits [1]; [7]
  serum total cholesterol level: 31.9 ± 7.5
Hyperlipidemic rabbits [1]; [8]
  serum total cholesterol level: 33.9 ± 7.2
Hyperlipidemic rabbits [1]; [9]
  serum total cholesterol level: 33.8 ± 7.8
Hyperlipidemic rabbits [1]; [10]
  serum total cholesterol level: 34.2 ± 7.4
PCSK9
  expression of PCSK9 protein (in words): strongly inhibited
ACC
  ACC phosphorylation (in words): induced
LDLR
  LDLR protein levels (in words): effectively increased

## COc1ccc2c(c1)CCN1Cc3c(ccc(OC)c3OS(=O)(=O)c3cccc(F)c3)CC21 (stereo not drawn) [128(−), 3,10-Dimethxoy-5,6,7,8,13,13a-hexahydroisoquinolino[2,1-b]isoquinolin-9-yl 3-fluorobenzenesulfonate]
Hyperlipidemic rabbits [2]
  ALP: 155.5 IU/L
  ALT: 50.2 IU/L
  AST: 20.8 IU/L
  CK: 997.5 U/L
  CREA: 105.2 µmol/L
  GLU: 7.9 mmol/L
  LDH: 50.3 IU/L
  adverse effect / toxicities (in words): absence of any adverse effect
Hyperlipidemic rabbits [1]; 14 days treatment
  TC and LDL-C reduction (in words): strong TC and LDL-C reduction
Hyperlipidemic rabbits [1]; [5]
  HDL-C: 3.5 mmol/L
  LDL-C: 24.4 mmol/L
  TC: 29.7 mmol/L
  TG: 0.9 mmol/L
Hyperlipidemic rabbits [1]; [6]
  serum total cholesterol level: 28.5 ± 6.3
Hyperlipidemic rabbits [1]; [7]
  serum total cholesterol level: 29.9 ± 8.0
Hyperlipidemic rabbits [1]; [8]
  serum total cholesterol level: 29.0 ± 7.9
Hyperlipidemic rabbits [1]; [9]
  serum total cholesterol level: 27.9 ± 5.2
Hyperlipidemic rabbits [1]; [10]
  serum total cholesterol level: 29.7 ± 4.9
PCSK9
  expression of PCSK9 protein (in words): strongly inhibited
ACC
  ACC phosphorylation (in words): induced
LDLR
  LDLR protein levels (in words): effectively increased

## COc1cc2c(cc1OC)[C@H]1[C@@H](C)c3ccc(OC)c(OC)c3CN1CC2 [CRDL, corydaline]
Male Wister rats [3]
  body weight: maintained constant
Male Wister rats [4]; 4 weeks
  adverse effects during the entire treatment: No any adverse effects
Male Wister rats [4]; end of 4-week treatment
  Kidney function and blood glucose level: not changed
  serum levels of AST and ALT vs control group: statistically lower
Male Wister rats [4]; hydrochloride salt, 4 weeks
  LDL-c level, of control: 25.6%
  LDL-c level, of day 0: 22.4%
  TC compared to the control group: 33.8%
  TC, of the pretreatment level: 33.0%
  TG level, of the control: 29%
  TG level, of the pretreatment level (day 0): 27%
